Here are results for 21 compounds from patent publication US20230107642A1 (Erasca, Inc., priority 2020, published 2023).

Each structure is given as a SMILES string.

The assay concerns the target T1, K-Ras G12C (Homo sapiens, UniProt P01116, G12C).
T1 construct: This protein contained 188 amino acids in total, including an N-terminal 6-Histidine tag; made in house; host or cells: E. coli BL21
As to the kind of experiment: CAF assay (% CAF; method in Example 7, not in this part). Format: binding. As to conditions: 10 uM compound, 1 h incubation.
Regarding `C=CC(=O)N1CCN(c2nc(=O)n3c4c(c(-c5cc(Cl)c(F)cc5F)c(Cl)cc24)SC[C@@H]3COCOC)[C@@H](C)C1` [Example 446, (3S)-7-((S)-4-acryloyl-2-methylpiperazin-1-yl)-9-chloro-10-(5-chloro-2,4-difluorophenyl)-3-((methoxymethoxy)methyl)-2H-[1,4]thiazino[2,3,4-ij]quinazolin-5(3H)-one], the “% CAF @ 10 uM, 1h” value amounted to 38%.

For `C=CC(=O)N1CCN(c2nc(=O)n3c4c(c(-c5cc(Cl)c(F)cc5F)c(Cl)cc24)SC[C@@H]3CN2CCn3c(nnc3C(F)(F)F)C2)[C@@H](C)C1` [Example 447, (3S)-7-((S)-4-acryloyl-2-methylpiperazin-1-yl)-9-chloro-10-(5-chloro-2,4-difluorophenyl)-3-((3-(trifluoromethyl)-5,6-dihydro-[1,2,4]triazolo[4,3-a]pyrazin-7(8H)-yl)methyl)-2H-[1,4]thiazino[2,3,4-ij]quinazolin-5(3H)-one], the “% CAF @ 10 uM, 1h” value worked out at 63.3%.

For `C=CC(=O)N1C[C@H](C)N(c2nc(=O)n3c4c(c(-c5cc(Cl)c(F)cc5F)c(Cl)cc24)SC[C@@H]3CN2CCn3c(nnc3C(F)(F)F)C2)C[C@H]1C` [Example 448, (3S)-7-((2S,5R)-4-acryloyl-2,5-dimethylpiperazin-1-yl)-9-chloro-10-(5-chloro-2,4-difluorophenyl)-3-((3-(trifluoromethyl)-5,6-dihydro-[1,2,4]triazolo[4,3-a]pyrazin-7(8H)-yl)methyl)-2H-[1,4]thiazino[2,3,4-ij]quinazolin-5(3H)-one], the “% CAF @ 10 uM, 1h” value stood at 55%.

As for `C=CC(=O)N1C[C@H](C)N(c2nc(=O)n3c4c(c(-c5cc(Cl)c(F)cc5F)c(Cl)cc24)SC[C@@H]3CN2CCC3(CC2)COC3)C[C@H]1C` [Example 449, (3S)-3-(2-oxa-7-azaspiro[3.5]nonan-7-ylmethyl)-7-((2S,5R)-4-acryloyl-2,5-dimethylpiperazin-1-yl)-9-chloro-10-(5-chloro-2,4-difluorophenyl)-2H-[1,4]thiazino[2,3,4-ij]quinazolin-5(3H)-one], the “% CAF @ 10 uM, 1h” value worked out at 51.6%.

As for `C=CC(=O)N1CCN(c2nc(=O)n3c4c(c(-c5ccc(F)cc5F)c(C(F)(F)F)cc24)SCCC3)[C@@H](C)C1` [Example 450, 8-((S)-4-acryloyl-2-methylpiperazin-1-yl)-11-(2,4-difluorophenyl)-10-(trifluoromethyl)-3,4-dihydro-2H,6H-[1,4]thiazepino[2,3,4-ij]quinazolin-6-one], the “% CAF @ 10 uM, 1h” value stood at 61%.

`C=C(F)C(=O)N1C2CC(=O)CC1CN(c1nc(=O)n3c4c(c(-c5ccc(F)cc5F)c(C(F)(F)F)cc14)SCCC3)C2` [Example 451, 11-(2,4-difluorophenyl)-8-(9-(2-fluoroacryloyl)-7-oxo-3,9-diazabicyclo[3.3.1]nonan-3-yl)-10-(trifluoromethyl)-3,4-dihydro-2H,6H-[1,4]thiazepino[2,3,4-ij]quinazolin-6-one]: the “% CAF @ 10 uM, 1h” value came out at 61%.

For `C/C=C/C(=O)N1C2CC(=O)CC1CN(c1nc(=O)n3c4c(c(-c5ccc(F)cc5F)c(C(F)(F)F)cc14)SCC3)C2` [Example 452, (E)-7-(9-(but-2-enoyl)-7-oxo-3,9-diazabicyclo[3.3.1]nonan-3-yl)-10-(2,4-difluorophenyl)-9-(trifluoromethyl)-2,3-dihydro-5H-[1,4]thiazino[2,3,4-ij]quinazolin-5-one], the “% CAF @ 10 uM, 1h” value was found to be 63%.

For the compound `CC#CC(=O)N1C2CC(=O)CC1CN(c1nc(=O)n3c4c(c(-c5ccc(F)cc5F)c(C(F)(F)F)cc14)SCC3)C2` [Example 453, 7-(9-(but-2-ynoyl)-7-oxo-3,9-diazabicyclo[3.3.1]nonan-3-yl)-10-(2,4-difluorophenyl)-9-(trifluoromethyl)-2,3-dihydro-5H-[1,4]thiazino[2,3,4-ij]quinazolin-5-one], the “% CAF @ 10 uM, 1h” value is given as 37%.

`C=CC(=O)N1CCN(c2nc(=O)n3c4c(c(-c5ccc(F)cc5F)c(C(F)(F)F)cc24)SC[C@@H](N(C)CC(F)(F)F)C3)[C@@H](C)C1` [Example 454, (3S)-8-((S)-4-acryloyl-2-methylpiperazin-1-yl)-11-(2,4-difluorophenyl)-3-(methyl(2,2,2-trifluoroethyl)amino)-10-(trifluoromethyl)-3,4-dihydro-2H,6H-[1,4]thiazepino[2,3,4-ij]quinazolin-6-one]: the “% CAF @ 10 uM, 1h” value amounted to 61%.

On to `C=CC(=O)N1CCN(c2nc(=O)n3c4c(c(-c5c(F)cc(F)cc5F)c(C(F)(F)F)cc24)SCCC3)[C@@H](C)C1` [Example 455, (S)-8-(4-acryloyl-2-methylpiperazin-1-yl)-10-(trifluoromethyl)-11-(2,4,6-trifluorophenyl)-3,4-dihydro-2H,6H-[1,4]thiazepino[2,3,4-ij]quinazolin-6-one], for which the “% CAF @ 10 uM, 1h” value is recorded as 21%.

Take `C=CC(=O)N1CCN(c2nc(=O)n3c4c(c(-c5cc(Cl)c(F)cc5F)c(Cl)cc24)SC[C@@H]3CN2CCC3(CC2)COC3)[C@@H](C)C1` [Example 456, (3S)-3-(2-oxa-7-azaspiro[3.5]nonan-7-ylmethyl)-7((S)-4-acryloyl-2-methylpiperazin-1-yl)-9-chloro-10-(5-chloro-2,4-difluorophenyl)-2H-[1,4]thiazino[2,3,4-ij]quinazolin-5(3H)-one]: the “% CAF @ 10 uM, 1h” value amounted to 77.6%.

Turning to `C=CC(=O)N1CCN(c2nc(=O)n3c4c(c(-c5cc(Cl)c(F)cc5F)c(Cl)cc24)SC[C@@H]3CN2CCN(C3CC3)CC2)[C@@H](C)C1` [Example 458, (3S)-7-((S)-4-acryloyl-2-methylpiperazin-1-yl)-9-chloro-10-(5-chloro-2,4-difluorophenyl)-3-((4-cyclopropylpiperazin-1-yl)methyl)-2H-[1,4]thiazino[2,3,4-ij]quinazolin-5(3H)-one], the “% CAF @ 10 uM, 1h” value came out at 55.6%.

On to `C=CC(=O)N1C[C@H](C)N(c2nc(=O)n3c4c(c(-c5cc(F)c(F)cc5F)c(Cl)cc24)SC[C@@H]3CN2CCn3c(nnc3C(F)(F)F)C2)C[C@H]1C` [Example 459, (3S)-7-((2S,5R)-4-acryloyl-2,5-dimethylpiperazin-1-yl)-9-chloro-3-((3-(trifluoromethyl)-5,6-dihydro-[1,2,4]triazolo[4,3-a]pyrazin-7(8H)-yl)methyl)-10-(2,4,5-trifluorophenyl)-2H-[1,4]thiazino[2,3,4-ij]quinazolin-5(3H)-one], for which the “% CAF @ 10 uM, 1h” value is reported as 82.2%.

`C=CC(=O)N1C[C@H](C)N(c2nc(=O)n3c4c(c(-c5cc(F)c(F)cc5F)c(Cl)cc24)SC[C@@H]3CN2CCC3(CC2)COC3)C[C@H]1C` [Example 460]: the “% CAF @ 10 uM, 1h” value is recorded as 79.7%.

On to `C=CC(=O)N1C[C@H](C)N(c2nc(=O)n3c4c(c(-c5cc(Cl)c(F)cc5F)c(Cl)cc24)SC[C@@H]3CC2CCN(CC(F)F)CC2)C[C@H]1C` [Example 461, (3S)-7-((2S,5R)-4-acryloyl-2,5-dimethylpiperazin-1-yl)-9-chloro-10-(5-chloro-2,4-difluorophenyl)-3-((1-(2,2-difluoroethyl)piperidin-4-yl)methyl)-2H-[1,4]thiazino[2,3,4-ij]quinazolin-5(3H)-one], for which the “% CAF @ 10 uM, 1h” value came to 79.5%.

Consider `C=CC(=O)N1CCN(c2nc(=O)n3c4c(c(-c5ccc(F)cc5)c(Cl)cc24)SC[C@@H]3CN2CCC3(CC2)COC3)[C@@H](C)C1` [Example 462, (S)-3-(2-oxa-7-azaspiro[3.5]nonan-7-ylmethyl)-7-((S)-4-acryloyl-2-methylpiperazin-1-yl)-9-chloro-10-(4-fluorophenyl)-2H-[1,4]thiazino[2,3,4-ij]quinazolin-5(3H)-one], for which the “% CAF @ 10 uM, 1h” value was determined as 87.8%.

As for `C=CC(=O)N1CCN(c2nc(=O)n3c4c(c(-c5cc(F)c(F)cc5F)c(Cl)cc24)SC[C@@H]3CN2CCn3c(nnc3C(F)(F)F)C2)[C@@H](C)C1` [Example 463, (3S)-7-((S)-4-acryloyl-2-methylpiperazin-1-yl)-9-chloro-3-((3-(trifluoromethyl)-5,6-dihydro-[1,2,4]triazolo[4,3-a]pyrazin-7(8H)-yl)methyl)-10-(2,4,5-trifluorophenyl)-2H-[1,4]thiazino[2,3,4-ij]quinazolin-5(3H)-one], the “% CAF @ 10 uM, 1h” value is 69%.

Take `C=CC(=O)N1CCN(c2nc(=O)n3c4c(c(-c5ccc(F)cc5F)c(C(F)(F)F)cc24)SC[C@@H](OC)C3)[C@@H](C)C1` [Example 464, (3S)-8-((S)-4-acryloyl-2-methylpiperazin-1-yl)-11-(2,4-difluorophenyl)-3-methoxy-10-(trifluoromethyl)-3,4-dihydro-2H,6H-[1,4]thiazepino[2,3,4-ij]quinazolin-6-one]: the “% CAF @ 10 uM, 1h” value is listed as 95%.

In the case of `C=CC(=O)N1CCN(c2nc(=O)n3c4c(c(-c5ccc(F)cc5F)c(C(F)(F)F)cc24)SC[C@H](OC)C3)[C@@H](C)C1` [Example 465, (3R)-8-((S)-4-acryloyl-2-methylpiperazin-1-yl)-11-(2,4-difluorophenyl)-3-methoxy-10-(trifluoromethyl)-3,4-dihydro-2H,6H-[1,4]thiazepino[2,3,4-ij]quinazolin-6-one], the “% CAF @ 10 uM, 1h” value was 96%.

Regarding `C=CC(=O)N1CCN(c2nc(=O)n3c4c(c(-c5cc(F)c(F)cc5F)c(Cl)cc24)SC[C@H]3COCOC)[C@@H](C)C1` [Example 466, (3R)-7-((S)-4-acryloyl-2-methylpiperazin-1-yl)-9-chloro-3-((methoxymethoxy)methyl)-10-(2,4,5-trifluorophenyl)-2H-[1,4]thiazino[2,3,4-ij]quinazolin-5(3H)-one], the “% CAF @ 10 uM, 1h” value was found to be 22.6%.

`C=CC(=O)N1C[C@H](C)N(c2nc(=O)n3c4c(c(-c5cc(Cl)c(F)cc5F)c(Cl)cc24)SC[C@@H]3CC2CCN(C3CC3)CC2)C[C@H]1C` [Example 467, (3S)-7-((2S,5R)-4-acryloyl-2,5-dimethylpiperazin-1-yl)-9-chloro-10-(5-chloro-2,4-difluorophenyl)-3-((1-cyclopropylpiperidin-4-yl)methyl)-2H-[1,4]thiazino[2,3,4-ij]quinazolin-5(3H)-one]: the “% CAF @ 10 uM, 1h” value is on record as 44.3%.
